The record followed here is patent publication US12449422B2, “Method and composition matter for immunoproteasome-mediated delivery into living cells” (Purdue Research Foundation, priority 2019, dated 2025).

In series [1] the test system is A549 cells. The series can be described thus: Cell Titer-Glo luminescent cell viability assay. It is filed as cell-based. The protocol: A549 cells were treated with 5 ng/mL IFN-γ for 4 days then split into a black 96-well plate at a density of 5,000 cells/well along with non-IFN-γ treated cells. Cells were allowed to adhere overnight before performing assays. The media was removed and fresh media (50 μL) was added to each well. Each probe was added to each well at the corresponding concentration and the plate was returned to the incubator for the given amount of time. To remove any signal due to FBS in the media, the media was removed and cells were washed with PBS (3 times). After the final wash, PBS (50 μL) was added to each well. The plate was incubated at 37° C. in the plate reader, monitoring the change in fluorescence (Ex—485(20) nm, Em—535(20) nm for Rh-probes; gain=90). Samples were run in five replicates and any outliers (outside the range of average±standard deviation) were removed (no more than two replicates per sample were removed). […] To ensure that observed differences in fluorescence were not due to a difference in total cells or cell viability, a Cell Titer-Glo® luminescent cell viability assay (Promega) was performed in a separate white 96 well plate using the same conditions per the manufacturer's protocol. Luminescence was recorded using a BioTek Synergy™ Neo2 Multimode Microplate Reader. […]
On the technique in general: In ATP-based viability assays light output follows the ATP content of the culture.

In series [2] the test system is IFN-γ treated A549 cells. The series can be described thus: Confocal imaging with TBZ1. The class given is cell-based. The following applies: 31 μM TBZ1, one hour, vs DMSO. As to the method: As an additional way to visualize the cells treated with TBZ1, we analyzed IFN-γ cells using confocal microscopy. Following a similar procedure as the plate reader assay, IFN-γ treated cells were plated on glass coverslip chambers coated with poly-D-lysine and were dosed with TBZ1 (31 μM) or DMSO for one hour. After washing, the cells were returned to the incubator for 30 min before staining with Super Bright 436 HLA-A, B, C antibody to serve as a membrane marker.
After four days of treatment with IFN-γ, A549 cells were plated into 8-well chambered coverglass plates that had been coated with poly-d-lysine (20,000 cells/well). The cells were allowed to adhere overnight then washed once with PBS. Fresh media including 31 μM TBZ1 was added to wells in triplicate and incubated for one hour. After incubation, the cells were washed with PBS (3 times) then kept in 200 μL modified Krebs-Ringer buffer (134 mM NaCl, 3.5 mM KCl, 1.2 mM K2HPO4·3H2O, 0.5 mM MgSO4·7H2O, 1.5 mM CaCl2·2H2O, 5 mM NaHCO3 and 10 mM HEPES, pH 7.4). The samples were returned to the incubator. After 30 min, Super Bright 436 HLA-ABC monoclonal antibody (ThermoFisher #62-9983-42) was added to each well (1 μL/well, 0.1 μg) and the samples were returned to the incubator for an additional 30 min. The samples were again washed with PBS and suspended in modified Krebs-Ringer buffer (200 μL) for imaging. […]

The test system of series [3] is A549 cells. The series can be described thus: Flow cytometry with TBZ1. The class given is cell-based. The following applies: 31 μM TBZ1, preliminary, single replicate. As to the method: A549 cells untreated and treated with IFN-γ were each plated into 4 wells of a 12-well plate at 300,000 cells/well. The cells were allowed to adhere overnight. To each well was added fresh media (500 μL) with either DMSO alone or TBZ1 (final concentration=31 μM). The plate was returned to the incubator for an hour. The cells were then washed with PBS (3 times). The plate was incubated for an additional hour in PBS. The cells were removed from each well using trypsin-EDTA solution. After centrifuging and removing the media, the cells were resuspended in PBS. Samples were mixed at a ratio of 1:1 -IFN-γ to +IFN-γ cells then all three samples were analyzed by flow cytometry using a Guava EasyCyte instrument with Guava CytoSoft™ software. Samples were excited with a 488 nm laser and fluorescence intensity was recorded from the 525 nm filter cube. Image analysis was performed using FlowJo v10. Data shown in FIG. 17 is of a single replicate.
Background: Flow cytometry measures light scatter and fluorescence of single cells or particles in a stream.

The target of series [4] is T1, sCP (Homo sapiens, UniProt P28074).
T1 construct: purchased Boston Biochem
Put plainly: LC/MS analysis of TBZ1 cleavage with purified sCP. The following applies: 31 μM, 9 nM sCP, 55 min, 37° C. The class given is biochemical. An excerpt:
(§1) We first analyzed TBZ1 in the same conditions as the biochemical assay without any iCP to confirm there was not any non-specific degradation occurring during the LC/MS run. In this, we only observed the two isomers of our probe. After treatment with the iCP, we observed two new peaks in the TIC spectrum. These corresponded to the expected Rh-peptoid and peptide fragments. The full mass of TBZ1 was extracted from each triplicate and compared between iCP and sCP samples. […] When this analysis was performed using sCP, we observed that 77% remained uncleaved.
(§2) In the same way as the biochemical assays (FIG. 11), TBZ1 (31 μM) was incubated at 37° C. with or without purified proteasome (9 nM) in 50 mM tris HCl buffer (pH 7.6) for 55 min in triplicate. After incubation, samples were quenched by adding 50 μL of HPLC-grade acetonitrile. The samples were dried under vacuum then resuspended in 50/50 water/acetonitrile with 0.1% formic acid (100 μL). Samples (50 μL) were analyzed by LC/MS (Agilent 1260 Infinity II with a Zorbax Eclipse Plus C18 column, 2.1×50 mm, 1.8-micron attached to an Agilent 6129 quadrupole mass spectrometer). […] Percent TBZ1 remaining in treated samples was determined by comparing the averages of untreated vs. treated samples.

Series [5] addresses T2, iCP (Homo sapiens, UniProt P28062).
T2 construct: purchased Boston Biochem
Put plainly: LC/MS analysis of TBZ1 cleavage with purified iCP. It is filed as biochemical. The following applies: 31 μM, 9 nM iCP, 55 min, 37° C.
Description: as §1, §2

Series [6] deals with A549 cells. Put plainly: Cellular assay with TBZ1, plate-reader fluorescence. The class given is cell-based. The following applies: 31 μM TBZ1, 15 and 60 min. The protocol: To determine the selectivity of TBZ1 in cells, both untreated cells and cells treated with IFN-γ were plated at the same cell density into a 96-well plate for fluorescence readouts. After allowing sufficient time for the cells to adhere to the wells, TBZ1 was added and allowed to incubate for various time points. Following the initial incubation, wells were washed with PBS to remove any probe that had not been taken up by the cells and the plate was incubated for an additional hour before the fluorescence was recorded. […] We initially intended to use TBZ4 as a way to confirm that the addition of a peptoid improved cell penetration and protease stability of TBZ1. […]
A549 cells were treated with 5 ng/mL IFN-γ for 4 days then split into a black 96-well plate at a density of 5,000 cells/well along with non-IFN-γ treated cells. […] The plate was incubated at 37° C. in the plate reader, monitoring the change in fluorescence (Ex—485(20) nm, Em—535(20) nm for Rh-probes; gain=90). […] To ensure that observed differences in fluorescence were not due to a difference in total cells or cell viability, a Cell Titer-Glo® luminescent cell viability assay (Promega) was performed in a separate white 96 well plate using the same conditions per the manufacturer's protocol. Luminescence was recorded using a BioTek Synergy™ Neo2 Multimode Microplate Reader. […]

Series [7] deals with T1, sCP. Put plainly: Hit validation: LC/MS of OVA released from hit peptides by sCP. It is filed as biochemical. The settings on record: 5.2 μM peptide, 4 nM sCP, 6 hours, 37° C.; vs EIC of control peptide Ala-Ala-Ala-Phe-OVA. The protocol:
(§3) Validation assays were performed under similar conditions as the screen. Briefly, 5 μM of each hit peptide was incubated at 37° C. with 4 nM iCP for six hours in triplicate, then analyzed by LC/MS. All peptides were also analyzed under identical conditions using 4 nM sCP. This was done to confirm that our library design yielded the desired selectivity and not simply sequences that could be efficiently cleaved by either isoform. The mass of OVA was extracted and integrated for each sample, averaging the triplicates. […] Of the nine total hits, six validated successfully. Additionally, all validated hits had at least 1.4-fold selectivity for the iCP (FIG. 4C and FIG. 5). We chose to move forward with the sequence Ala-Thr-Met-Trp, as this not only had highly efficient cleavage by the iCP but also was close to 5-fold selective for the iCP compared to the sCP.
(§4) For validation, purified hit sequences (46 μL final concentration 5.2 μM) in 50 mM tris buffer, pH 7.6 were added to nine wells of a 96 well plate. To each triplicate, 4 μL of tris buffer, 50 nM iCP (final concentration 4 nM) or 50 nM sCP (final concentration 4 nM) was added. This was sealed and allowed to incubate for 6 hours at 37° C. HPLC-grade acetonitrile (50 μL) was added to each sample and the samples were then dried under vacuum. Dried samples were resuspended in 100 μL 50/50 water/acetonitrile with 0.1% formic acid. Each sample was then analyzed by LC/MS with an injection volume of 90 μL. The mass of OVA (887.0-887.9) was extracted. The peak at the same time point as the standard was then integrated and averaged over the triplicate for each sample. Percent change was considered for each triplicate in comparison to the EIC of the control peptide sequence (Ala-Ala-Ala-Phe-OVA). Raw data for integrated OVA peaks can be seen in FIG. 5. Each bar represents an average of triplicates with error bars given as the standard deviation.

The target of series [8] is T2, iCP. The series can be described thus: Hit validation: LC/MS of OVA released from hit peptides by iCP. The class given is biochemical. The settings on record: for iCP % Change OVA: 5.2 μM peptide, 4 nM iCP, 6 hours, 37° C., vs EIC of control peptide Ala-Ala-Ala-Phe-OVA; for Selectivity: iCP over sCP. The protocol:
as §3, §4

For series [9], the target named is T2, iCP. Put plainly: Biochemical assay with fluorogenic substrate probes and purified proteasome. The settings on record: 31 μM probe, 9 nM proteasome, 37° C. As to the method: Initially, we treated various concentrations of TBZ1 from 0-250 μM with both the iCP and sCP (FIG. 11). All concentrations were incubated at 37° C. with 9 nM of the respective proteasomes and the increase in fluorescence was monitored for 60 min at 1 min intervals. We found 31 μM of TBZ1 to give a favorable profile, maintaining about a 3:1 selectivity compared to the sCP (FIG. 6).
The remaining probes were studied at 31 μM and monitored for an increase in fluorescence over 30 minutes. […] Finally, we also sought to compare TBZ1 to the commercially available, iCP-selective substrate probe Ac-ANW-AMC.
Each probe was dissolved in DMSO at a proper stock concentration such that the final concentration of DMSO in the sample is 2%. For TBZ1, a two-fold serial dilution was performed to determine the optimal concentration for biochemical assays. Each stock was then diluted in 50 mM tris buffer, pH 7.6 (1 μL stock per 40 μL buffer) and added to a black 96 well plate in triplicate (41 μL per well). Stocks ([…] in 50 mM tris buffer, pH 7.6) of either iCP or sCP was added to each well (9 μL/well, final concentration=9 nM). The change in fluorescence (Ex—485(20) nm, Em—535(20) nm; gain=50) was monitored over time on a Tecan Infinite 200® Pro Microplate Reader. Data was plotted as the average of triplicate samples using GraphPad Prism 7 and can be found in FIG. 11. […]

No end group written: not given here.

For the compound `COc1ccc(C[C@H](NC(=O)[C@H](C)NC(=O)CN2CCOCC2)C(=O)N[C@@H](Cc2ccccc2)C(=O)C2(C)CO2)cc1` (stereo in doubt) [ONX-0914], the “cell death with ONX-0914 (Cell Titer-Glo)” value in series [1] (ONX-0914 20 μM, IFN-γ treated A549 cells) is “not due to cell death”.

As to `COCCCN(CC(=O)N(CCCN(C)C)CC(N)=O)C(=O)CN(CCCN(C)C)C(=O)CNC(=O)CCC(=O)Nc1ccc2c(c1)Oc1cc(NC(=O)[C@H](Cc3c[nH]c4ccccc34)NC(=O)[C@H](CCSC)NC(=O)[C@@H](NC(=O)[C@H](C)N)C(C)O)ccc1C21OC(=O)c2ccccc21` (stereo partly shown) [TBZ1], the “cell viability (Cell Titer-Glo) after TBZ1 treatment” value in series [1] (untreated vs IFN-γ treated A549 cells) is listed as “no significant difference”. The “intracellular staining by confocal microscopy” value in [2] is on record as “increased staining due to probe cleavage within the cell”. Further, the “separation of cell populations by flow cytometry” value in series [3] was “cell populations can be separated based on increasing amounts of iCP-expressing cells”. The “TBZ1 remaining uncleaved with sCP” value in series [4] came to 77%. Further, the “uncleaved TBZ1 remaining in iCP samples” value in [5] worked out at 31%. For the same compound, the “fluorescence signal in IFN-γ treated vs regular A549 cells” value in [6] is on record as “significantly increased signal for IFN-γ treated cells”.

“Ala-Ala-Ala-Phe-OVA [reference compound]”: the “sCP % Change OVA” value in series [7] was −25%. The “iCP % Change OVA” value in [8] worked out at 0%. For the same compound, in series [8] (OVA released), the Selectivity is 1.3.

On to His-Gly-Gly, for which the “sCP % Change OVA” value in [7] is −78%. Also, in series [8], the “iCP % Change OVA” value is on record as −82%. Besides, the Selectivity in series [8] (OVA released) was found to be 0.8.

Take “TBZ2 (AEPY; also: ['rhodamine probe conjugate with peptoid group'])”: in series [9], the “change in fluorescence / cleavage by purified proteasome” value is “very minimal fluorescence”.

Take TBZ4 (ATMW; also: rhodamine probe): the “change in fluorescence / cleavage by purified proteasome” value in series [9] is “not as efficiently cleaved at TBZ1”.

As to “Thr-Met-Trp: hit peptide: N-terminal Ala, P3-P2-P1 Thr-Met-Trp, attached to modified OVA (ATMW; also: attached to modified OVA)”, the “sCP % Change OVA” value in series [7] was “+232%”. Further, the “iCP % Change OVA” value in series [8] was “+1502%”. Further, in series [8] (hit validation, OVA released), the “selectivity for the iCP compared to the sCP” value is given as around 5 fold. Also, in [8] (OVA released), the Selectivity is given as 4.8.
